Experimental data as given in article PMC2970562, “High-Affinity Inhibitors of Human NAD^+-Dependent 15-Hydroxyprostaglandin Dehydrogenase: Mechanisms of Inhibition and Structure-Activity Relationships” (PLoS ONE, 2010).

Assays:
[1] = molecular target: recombinant human placental 15-PGDH; details: cited from earlier work; for potency as inhibitor of 15-PGDH: in words ref 22
[2] = molecular target: T1, human 15-PGDH (Homo sapiens, UniProt P15428); assay: qHTS and 24-point re-test: fluorescence assay of NAD+ reduction to NADH on PGE2 oxidation (PubChem AID 894); format: biochemical; details: potency in 24-point titrations on re-test; 20 nM 15-PGDH, 1 mM NAD+, 30 µM PGE2, pH 8.0; read-out: qHTS IC50
T1 construct: comprising residues 3–256 of the human HPGD gene (GenBank identifier: 1203982); His6 (GHHHHHH, behind the TEV site) (C, cleaved yes); made in house; host or cells: E. coli BL21(DE3)-R3
T1 sequence (P15428 3-256): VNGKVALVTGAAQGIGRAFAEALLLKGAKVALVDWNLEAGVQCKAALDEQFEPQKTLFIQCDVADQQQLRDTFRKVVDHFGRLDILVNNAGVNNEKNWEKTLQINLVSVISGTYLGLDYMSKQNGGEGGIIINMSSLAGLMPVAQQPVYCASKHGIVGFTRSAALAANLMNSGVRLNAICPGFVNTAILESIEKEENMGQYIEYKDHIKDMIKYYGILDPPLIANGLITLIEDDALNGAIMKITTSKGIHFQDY
Description: The assay was miniaturized to a 4-µL volume in 1536-well format: enzyme (3 µL) was dispensed first, followed by a pintool transfer of library compounds dissolved in DMSO. After equilibration, a substrate dispense (1 µL) initiated the enzymatic reaction (see Materials and Methods, for detailed protocol description). […] Hits associated with low-efficacy (<40% maximum inhibition), incomplete curves, as well as those displaying only a single-point inhibition at the top concentration tested were eliminated from further consideration. Similarly, the collection of real-time kinetic data allowed the autofluorescence of each compound to be evaluated by comparing the initial fluorescence read at top concentration with the mean value of uninhibited assay controls: compounds whose top-concentration initial well fluorescence exceeded six standard deviations over the mean were flagged as potential autofluorescent artifacts, [28] (see example in supplementary information Figure S1E). The complete screening and followup results are available in PubChem (PubChem Assay ID 894).
The enzymatic reaction was performed in 50 mM Tris-HCl pH 8.0, containing 0.01% Tween 20. […] The high-throughput screen was performed on a fully integrated robotic system (Kalypsys Inc, San Diego, CA) as described elsewhere. Library compounds, arrayed as seven-point inter-plate concentration series, were screened from the lowest (3.5 nM) to the highest (57.5 µM) concentration, with plates containing DMSO only, serving to note any systematic drifts in the signal, interspersed evenly throughout the screen (approximately every 50 plates). Briefly, 3 µL of reagents were dispensed into 1536-well Greiner black solid-bottom assay plates using integrated nanoliter solenoid-technology dispensers. Compounds and controls (23 nL) were transferred via Kalypsys pintool equipped with 1,536-pin array (10-nL slotted pins; V&P Scientific, Palo Alto, CA). After a 15-minute incubation (to allow for interaction between compound and enzyme), a 1-µL substrate addition step initiated the reaction. Kinetic data were collected on a ViewLux High-throughput CCD imager (Perkin-Elmer) equipped with standard UV fluorescence optics (exc. 340 nm, em. 450 nm).
Starting fluorescence intensity and the change in fluorescence over the two-minute initial rate period were recorded for every well. Screening data were normalized against no-enzyme (64 wells, columns 3 and 4) and no-compound (32 wells located in column 1) controls, and concentration-response relationships were derived as described previously. A four-parameter Hill equation [47] was fitted to the concentration-response data using publicly available algorithms (http://www.ncgc.nih.gov/pub/openhts/curvefit/).

[3] = molecular target: T1, human 15-PGDH; assay: Differential scanning fluorimetry (DSF), thermal stabilization; format: binding; details: for ∆Tm [°C] NAD+: with 200 µM NAD+; for ∆Tm [°C] NAD+ / ∆Tm [°C] NADH / ∆Tm [°C] apo: 1 µM protein, compound 50 or 250 µM, N/A = no unfolding transition observed in DSF; for ∆Tm [°C] NADH: with 200 µM NADH; for ∆Tm [°C] apo: without cofactor
Description: A correlation between the ΔTm and the inhibitory potency has been shown in a number of protein-ligand systems, particularly for kinases [32]–[34].
Studies to assess the thermal stability of human 15-PGDH in presence of compounds were performed as described previously, with variations. Briefly, the protein was diluted to a final assay concentration of 1 µM in 100 mM Tris buffer pH 8.0, containing 0.01% Tween-20 and 1∶1000 SYPRO orange dye (Invitrogen). […] Compounds were added at a ratio of 1∶5 from appropriate stock solutions in 10% (v/v) DMSO to comprise either 50 or 250 µM final concentrations. Heat denaturation curves were recorded using a RT-PCR instrument (Mx3005p, Agilent) applying a temperature gradient of 2°C/min. […] 2.5 (ftp://ftp.sgc.ox.ac.uk/pub/biophysics) and PRISM 5.0 (GraphPad Software, Inc.).

[4] = molecular target: T1, human 15-PGDH; assay: Substrate (PGE2) and cofactor (NAD+) titrations, mechanism of action, global fitting; format: biochemical; details: for Competitive (CM), fit residual Chi^2 value / Mixed-mode (MM), fit residual Chi^2 value / Noncompetitive (NM), fit residual Chi^2 value / Uncompetitive (UM), fit residual Chi^2 value: global fitting; for Titration of NAD^+ K m / Titration of NAD^+ V max [µmol/(min×mg)] / Titration of NAD^+ k cat/K m[×10^6] / Titration of NAD^+ k cat[1/sec]: 30 µM PGE2
Description: Kinetic studies were performed in 100 mM Tris buffer pH 8.0, containing 0.01% Tween-20 and 10 nM 15-PGDH enzyme. […] All inhibitor compounds were dissolved in 10% (v/v) DMSO at varying concentrations from which they were applied at 1∶5 ratio (resulting in a final concentration of 2% (v/v) DMSO in all assays). For each experiment an aliquot of purified enzyme was thawed freshly and pre-diluted to 10 µM in buffer I (5 mM Tris/HCl, pH 8.0, 150 mM NaCl, 0.01% Tween-20). All experiments were performed in white 384-well PCR microplates (Bio-Rad Laboratories, Inc.) in final assay volumes of 20 µL. Twelve-point compound titrations were set up from serially diluted stock solutions in 10% (v/v) DMSO. […] The initial rates recorded in compound titrations were plotted against -log[compound], and non-linear regression (Levenberg-Marquardt) fitting of the dose-response curve to the Hill equation [47] was performed to derive the IC50, using PRISM 5.0 (GraphPad Software, Inc.). For substrate/cofactor titrations, curves with initial rates plotted against the concentration of substrate or cofactor were fitted to the Michaelis-Menten equation, to derive maximal activities, V max, and Michaelis constants, K m. Fitting qualities were judged from the goodness of fit (R^2>0.98).

[5] = molecular target: T2, ALDH1A1 (Homo sapiens, UniProt P00352); assay: Selectivity screen, aldehyde dehydrogenase 1 (PubChem Assay ID 1030); format: biochemical
T2 sequence (P00352 1-501): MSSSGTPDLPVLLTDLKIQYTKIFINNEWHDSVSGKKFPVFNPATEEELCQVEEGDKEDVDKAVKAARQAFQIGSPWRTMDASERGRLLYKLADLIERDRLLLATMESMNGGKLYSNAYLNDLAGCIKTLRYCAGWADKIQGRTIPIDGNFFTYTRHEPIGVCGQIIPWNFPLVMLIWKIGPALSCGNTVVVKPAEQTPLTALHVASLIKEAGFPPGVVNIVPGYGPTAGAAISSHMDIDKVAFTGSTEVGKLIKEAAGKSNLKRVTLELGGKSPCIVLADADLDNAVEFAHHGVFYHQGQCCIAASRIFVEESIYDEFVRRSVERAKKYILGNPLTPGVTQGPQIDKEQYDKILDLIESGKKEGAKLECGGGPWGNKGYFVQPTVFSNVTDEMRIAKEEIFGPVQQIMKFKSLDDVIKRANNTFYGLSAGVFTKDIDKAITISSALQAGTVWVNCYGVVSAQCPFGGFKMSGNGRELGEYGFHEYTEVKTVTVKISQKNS
Description: The list also includes two SDR enzymes, hydroxyacyl dehydrogenase (HADH2, also known as type-10 hydroxysteroid dehydrogenase, HSD17β10; PubChem Assay ID 886) and type-4 hydroxysteroid dehydrogenase (HSD17β4; PubChem Assay ID 893), and a medium-chain dehydrogenase/reductase (MDR), aldehyde dehydrogenase 1 (ALDH1A1; PubChem Assay ID 1030), each of which was tested using a similar experimental protocol to that used for 15-PGDH.

CCOC(=O)c1ccc(N=Nc2ccc(O)c(CC(=O)O)c2)cc1 [CAY10397]
Ki ([1]; human 15-PGDH ref 24): 110 nM

CC1(COc2ccc(CC3SC(=O)NC3=O)cc2)CCCCC1 (centres unmarked) [Ciglitazone]
IC50 ([1]; recombinant human placental 15-PGDH ref 22): 2700 nM

Cc1cc(C(=O)N2CCN(C)CC2)c(C)n1C1CC1 [Compound 59]
IC50 [2]: 2240 nM
∆Tm [°C] NAD+ [3]: 6.9 °C
∆Tm [°C] NADH [3]: 1.7 °C
∆Tm [°C] apo [3]: -6.1 °C

Fc1ccccc1CSc1nc2cc(Br)cnc2[nH]1 [Compound 60]
IC50 [2]: 631 nM
∆Tm [°C] NAD+ [3]: 7.6 °C
∆Tm [°C] NADH [3]: 1.5 °C
∆Tm [°C] apo [3]: -0.2 °C

N#Cc1ccccc1CSc1nc2cc(Br)c[nH]c-2n1 [Compound 61]
Sum-of-squares F-test p, UM vs. MM ([4]; NAD^+ titration): UM vs. MM: p = 0.1058
Sum-of-squares F-test p, CM vs. MM ([4]; PGE2 titration): CM vs. MM:p = 0.0001
effect on the V max ([4]; PGE2 titration, in words): almost no effect
increase in the K m ([4]; PGE2 titration, inhibitor 50 nM): 3 fold
Preferred mode of inhibition ([4]; PGE2 titration, rejection threshold p = 0.05): MM (MM, mixed-mode inhibition)
Competitive (CM), fit residual Chi^2 value ([4]; NAD^+ titration): 0.9507
Mixed-mode (MM), fit residual Chi^2 value ([4]; NAD^+ titration): 0.9841
Noncompetitive (NM), fit residual Chi^2 value ([4]; NAD^+ titration): 0.9834
Uncompetitive (UM), fit residual Chi^2 value ([4]; NAD^+ titration): 0.9837
Competitive (CM), fit residual Chi^2 value ([4]; PGE2 titration): 0.9845
Mixed-mode (MM), fit residual Chi^2 value ([4]; PGE2 titration): 0.9866
Noncompetitive (NM), fit residual Chi^2 value ([4]; PGE2 titration): 0.9800
Uncompetitive (UM), fit residual Chi^2 value ([4]; PGE2 titration): 0.9742
mode of inhibition with respect to the cofactor NAD+ ([4]; in words): uncompetitive
mode of inhibition with respect to the substrate PGE2 ([4]; in words): competitive inhibition
Titration of PGE2 K m ([4]; inhibitor 10.0 nM): 7.5 ± 0.5 µM
Titration of PGE2 V max[µmol/(min×mg)] ([4]; inhibitor 10.0 nM): 29.0 µmol/min/mg
Titration of PGE2 k cat/K m[×10^6] ([4]; inhibitor 10.0 nM): 1.8 ×10^6
Titration of NAD^+ K m ([4]; inhibitor 10.0 nM): 17.0 ± 0.8 µM
Titration of NAD^+ V max [µmol/(min×mg)] ([4]; inhibitor 10.0 nM): 21.1 µmol/min/mg
Titration of NAD^+ k cat/K m[×10^6] ([4]; inhibitor 10.0 nM): 0.6 ×10^6
Titration of NAD^+ k cat[1/sec] ([4]; inhibitor 10.0 nM): 10.3 ± 0.1 s⁻¹
Titration of PGE2 K m ([4]; inhibitor 50.0 nM): 13.5 ± 1.3 µM
Titration of PGE2 V max[µmol/(min×mg)] ([4]; inhibitor 50.0 nM): 25.6 µmol/min/mg
Titration of PGE2 k cat/K m[×10^6] ([4]; inhibitor 50.0 nM): 0.9 ×10^6
Titration of PGE2 k cat[1/sec] ([4]; inhibitor 50.0 nM): 12.4 ± 0.3 s⁻¹
Titration of NAD^+ K m ([4]; inhibitor 50.0 nM): 11.1 ± 1.2 µM
Titration of NAD^+ V max [µmol/(min×mg)] ([4]; inhibitor 50.0 nM): 10.2 µmol/min/mg
Titration of NAD^+ k cat/K m[×10^6] ([4]; inhibitor 50.0 nM): 0.4 ×10^6
Titration of NAD^+ k cat[1/sec] ([4]; inhibitor 50.0 nM): 5.0 ± 0.1 s⁻¹
ΔTm in the presence of NAD+ [3]: 12.2±0.1 °C
ΔTm in the presence of NADH [3]: 2.9±0.5 °C
∆Tm [°C] NAD+ [3]: 12.2 °C
∆Tm [°C] NADH [3]: 2.9 °C
∆Tm [°C] apo [3]: -1.2 °C
response against ALDH1A1 ([5]; in words): flat response
IC50 ([5]; top concentration 57.5 µM, PubChem Assay ID 1030, read-out: IC50/nM ALDH1A1): > 57500 nM

COc1ccc(CNC(=O)CCn2c(-c3cccc(C)c3)n[nH]c2=S)cc1 [Compound 65]
IC50 [2]: 631 nM
∆Tm [°C] NADH [3]: -0.2 °C

C=CCn1c(=NC(=O)c2cc(C)n(C)n2)sc2cc(Cl)ccc21 [Compound 66]
IC50 [2]: 355 nM
∆Tm [°C] NADH [3]: -0.7 °C

O=c1c2ccccc2sn1-c1cc(S(=O)(=O)N2CCOCC2)ccc1N1CCCC1 [Compound 71]
IC50 [2]: 2510 nM
∆Tm [°C] NAD+ [3]: 2.4 °C
∆Tm [°C] NADH [3]: -0.4 °C
∆Tm [°C] apo [3]: -1.8 °C

CN(CCc1ccccn1)CC(=O)Nc1ccc(OC(F)(F)F)cc1 [Compound 78]
IC50 [2]: 2510 nM
∆Tm [°C] NAD+ [3]: 4.0 °C
∆Tm [°C] NADH [3]: -7.6 °C
∆Tm [°C] apo [3]: -7.4 °C

Cc1cc(=O)oc2cc(OCC(=O)N3CCCc4ccccc43)ccc12 [Compound 79]
IC50 [2]: 1120 nM
∆Tm [°C] apo [3]: -4.1 °C

Cc1ccc(-c2nnc(S)n2N=CC=Cc2ccccc2[N+](=O)[O-])cc1 [Compound 80]
IC50 [2]: 501 nM
∆Tm [°C] NAD+ [3]: 4.5 °C
∆Tm [°C] NADH [3]: 0.2 °C

CNC(C)C(O)c1ccccc1.O=S(=O)(O)O (centres unmarked) [Compound 84]
IC50 [2]: 1410 nM
∆Tm [°C] NAD+ [3]: 1.5 °C
∆Tm [°C] NADH [3]: -0.1 °C
∆Tm [°C] apo [3]: 0.7 ± 0.1 °C

COc1ccc2c(c1)c(CC(=O)O)c(C)n2C(=O)c1ccc(Cl)cc1 [indomethacin]
potency as inhibitor of 15-PGDH [1]: micromolar potencies

O=C(O)c1cccnc1Nc1cccc(C(F)(F)F)c1 [niflumic acid]
potency as inhibitor of 15-PGDH [1]: micromolar potencies

CC1=C(CC(=O)O)c2cc(F)ccc2/C1=C\c1ccc([S+](C)[O-])cc1 (centres unmarked) [sulindac]
potency as inhibitor of 15-PGDH [1]: micromolar potencies
